Values quoted from earlier work, collected in patent US5162573A, “Valproic and (E)-2-valproenoic acid derivatives, and pharmaceutical compositions therefrom” (Chiesi Farmaceutici S.p.A., priority 1986, dated 1992).
Each block holds one molecule with its values, some of them ahead of it.

Legend:
[1] = oral administration of equimolecular doses, in comparison with valproic acid
[2] = in comparison with valproic acid
[3] = not given; remark: listed apart in the source

SMILES: CC/C=C(\CCC)C(=O)O [valproenoic acid, (E)-2-propyl-2-pentenoic acid]
half life in man: 12.5 h
hepatic concentration [1]: remarkably reduced hepatic concentration in comparison with valproic acid
anticonvulsivant activity, potency and duration of action [2]: a wide spectrum anticonvulsivant activity, a potency and a duration of action comparable to those of valproic acid
toxic effects ([3]; in comparison with valproic acid): remarkably reduced toxic effects
hepatic tolerability / hepatic reactions ([3]; in vivo): much better tolerated at hepatic level
teratogenic effects ([3]; in vivo): totally devoid of teratogenic effects

half life in man: 9 to 10 h
SMILES: CCCC(CCC)C(=O)O [valproic acid, 2-propyl-2-pentanoic acid]
teratogenic effects ([3]; in vivo): teratogenic effects
